Assay results taken from publication PMC5164911, “Comparative Analysis of the Interaction between Different Flavonoids and PDIA3” (Oxidative Medicine and Cellular Longevity, 2016).
Like-named read-outs stand apart in the source and are kept apart here.

What was measured:
PDIA3 [1] = molecular target: PDIA3; design: method as in PMID 24530445; details: cited from earlier work
PDIA3 [2] = molecular target: T1, PDIA3 (Homo sapiens, UniProt P30101); details: cited from earlier work
T1 construct: made in house; host or cells: E. coli BL21 (vector pET21)
T1 sequence (P30101 25-505): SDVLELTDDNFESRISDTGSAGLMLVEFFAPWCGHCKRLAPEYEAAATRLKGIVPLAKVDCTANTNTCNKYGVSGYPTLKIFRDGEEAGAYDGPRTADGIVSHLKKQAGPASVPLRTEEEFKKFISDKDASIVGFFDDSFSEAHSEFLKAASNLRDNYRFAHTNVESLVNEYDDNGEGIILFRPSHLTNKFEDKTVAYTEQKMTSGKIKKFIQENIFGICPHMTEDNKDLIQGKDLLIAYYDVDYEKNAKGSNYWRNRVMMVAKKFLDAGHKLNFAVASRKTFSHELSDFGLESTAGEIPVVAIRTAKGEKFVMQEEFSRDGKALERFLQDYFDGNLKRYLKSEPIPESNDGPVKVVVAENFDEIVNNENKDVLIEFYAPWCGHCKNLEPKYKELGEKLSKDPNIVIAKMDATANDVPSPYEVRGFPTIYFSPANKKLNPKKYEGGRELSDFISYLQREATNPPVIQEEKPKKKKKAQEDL

PDIA3 [3] = molecular target: T1, PDIA3; details: cited from earlier work; remark: listed apart in the source
PDIA3 [4] = molecular target: T1, PDIA3; design: method as in Trnková et al. [30]; details: Figure 8, unit inferred; ref Trnková et al. [30]; read-out: Dissociation constant (Kd); cited from earlier work
PDIA3 [5] = molecular target: T1, PDIA3; experiment: Differential scanning fluorimetry (thermal stability, SYPRO Orange); format: binding; details: 50 μM flavonoid, reduced PDIA3 1 μM
Procedure: Protein stability was tested by the fluorescence-based thermal stability assay or differential scanning fluorimetry (DSF) developed by Pantoliano and coworkers. DSF records the fluorescence emission signal from the binding of a dye (SYPRO orange) to the exposed hydrophobic patches upon protein unfolding. Fluorescence measurements were performed using a CFX96 Connect RT-PCR instrument (BioRad). 18 μl aliquots of protein solution (1 μM), freshly diluted in Tris Buffered saline (50 mM TrisHCl, pH 8.0, 150 mM NaCl) containing 0.1 mM DTT, 0.2 mM EDTA, and 1 : 1000 dilution of SYPRO Orange (50 mM stock solution in DMSO), were distributed in a 96-well plate. Sample wells were addition of increasing concentration (up to 50 μM) of individual flavonoid by adding 2 μl of 10-fold concentrated stock solutions freshly prepared. As control, the protein solution was added with 2 μl of the dilution buffer. A melting point analysis was recorded increasing the temperature from 20 to 95°C with an increment of 0.5°C and reading, at each temperature, the fluorescence in fluorescence resonance energy transfer mode (FRET). Each measure was the average of three sample wells reading and each DSF experiment was repeated at least three times. To calculate T m values, DSF data from the melting curve were exported and fitted to Boltzman equation using GraphPad software. Effect of flavonoids was evaluated comparing the T m values in presence and absence of each molecule.

PDIA3 [6] = molecular target: T1, PDIA3; experiment: Fluorescence quenching titration of PDIA3 intrinsic fluorescence; format: binding
Procedure: Quantitative analysis of the interaction between individual flavonoids and PDIA3 was performed by fluorimetric titration. […] Briefly, solution of PDIA3 (0.5 μM) or a and a′ domains (1 μM) in phosphate buffered saline (PBS) containing DTT 0.1 mM and EDTA 0.2 mM were titrated in quartz cuvette by stepwise additions, at 5 min time intervals, of individual flavonoid solution (1 mM in PBS/ethanol 50 : 50 v/v freshly prepared from a 20 mM stock solution in DMSO). […] To minimize the inner-filter effect we limited the highest concentration reached in the titration test up to 10 μM. All experiments were carried out at 25°C. Each spectrum was the mean of three repeated scans. Fluorescence spectra of appropriate blanks (flavonoids without proteins) were recorded under the same experimental conditions and subtracted from the corresponding flavonoid-protein system to correct the fluorescence background.
Quenching analysis was performed on PDIA3 (0.5 μM), in the reduced form, by adding stepwise increasing concentration of each molecule and recording the protein fluorescence spectra. For some flavonoids the analysis was extended to isolate a′ domain (1 μM), always in the reduced form. […] For each ligand molecule the Stern-Volmer quenching constant was obtained by linear regression of plots of F 0/F versus [L].
The Stern-Volmer quenching constant may be expressed as K SV = K q τ 0, where K q is the quencher rate coefficient and τ 0 is the average lifetime of the emissive excited state of the protein in the absence of the quencher.
The number of binding sites (n) and the binding constant (K b) were obtained by plotting log((F 0 − F)/F) versus log(1/([L t] − n(F 0 − F)[P t]/F 0)) using the reiterative calculation process described by Sun et al., assuming a similar affinity for each binding site.

PDIA3 [7] = molecular target: T1, PDIA3; experiment: Disulfide reductase activity with DiE-GSSG fluorogenic probe; format: biochemical; details: DiE-GSSG substrate; for Inhibition of disulfide reductase (redox) activity: 20 μM flavonoid (Figure 7)
Procedure: Disulfide reductase activity of ERp57 was monitored by sensitive fluorescent assay using dieosin glutathione disulfide (DiE-GSSG) as fluorogenic probe. DiE-GSSG was synthesized by the reaction of eosin isothiocyanate with oxidized glutathione (GSSG) according to the method of Raturi and Mutus with some modifications. DiE-GSSG concentration was determined spectrophotometrically (ℇ 525 = 88,000 M^-1 cm^−1). Disulfide reductase activity was assayed in a reaction buffer containing 2 mM EDTA, 150 nM DiE-GSSG, and 5 μM DTT in PBS. A 20 μl aliquot of a stock solution of PDIA3 (1 μM) was added to the reaction mixture and DiE-GSSG reduction was monitored at 545 nm with excitation at 520 nm, at 25°C with continuous stirring. Reductase activity was calculated as the initial velocity in fluorescence increase. To test the effect of flavonoids on PDIA3 activity, the protein stock solution was previously incubated for 15 minutes at room temperature with different concentrations of each flavonoid and then a 20 μl aliquot subjected to assay in a reaction buffer containing the same concentration of the flavonoid.
Fluorescence quenching constant (K SV) values were given as means ± standard deviation and values of disulfide reductase activity were expressed in % of control sample ± relative standard deviation. All measurements were performed at least three times. Dunnett's test was used to compare the obtained reductase activity data with the activity of the untreated protein and a p value of <0.01 was considered as statistically significant.

PDIA3 [8] = molecular target: T1, PDIA3; experiment: DNA binding activity by EMSA; format: biochemical; details: flavonoid 0 to 50 μM
Procedure: EMSA assay was performed using a 79-bp […] obtained by PCR as previously described. Amplified DNA was end-labeled by using 5-fluorescein-modified primers. 10 ng of DNA fragment was incubated with 1 μg of PDIA3 or a′ domain, in presence of increasing concentration of flavonoids (from 0 to 50 μM). Controls were performed using DNA alone and in the presence of each flavonoid. All tests were performed in 20 μl mixtures containing 20 mM Tris-HCl, pH 7.5, 50 mM NaCl, and 10% (v/v) glycerol. Samples were incubated for 1 hour at 25°C and then resolved on 5% polyacrylamide gels in 0,25% TBE buffer (22.5 mM Tris-borate, 5 mM EDTA, pH 8.3) at 150 V. Gel images were recorded using a ChemiDoc MP Imaging System (BioRad) equipped with an epi-blue excitation lamp and a 520 nm emission filter.

COc1cc(C2Oc3cc([C@H]4Oc5cc(O)cc(O)c5C(=O)[C@@H]4O)ccc3OC2CO)ccc1O (stereo partly shown) [silibinin]
dissociation constant (PDIA3 [1]): within micromolar range
Effect on redox activity of PDIA3 (PDIA3 [2]): no effect
Effect on DNA binding capability of PDIA3 (PDIA3 [3]): no effect

O=C(OC1Cc2c(O)cc(O)cc2OC1c1cc(O)c(O)c(O)c1)c1cc(O)c(O)c(O)c1 (stereo not shown) [Epigallocatechin gallate, epigallocatechin gallate]
Inhibition of redox activity (%) (PDIA3 [2]; Figure 8, ref Trnková et al. [30]): 21%
Effect on DNA binding (PDIA3 [3]; ref Trnková et al. [30]): Inhibition
Kd (PDIA3 [4]): 45.8 µM

O=c1c(O)c(-c2ccc(O)c(O)c2)oc2cc(O)cc(O)c12 [Quercetin, quercetin]
Increase in melting temperature (T m) of PDIA3 (PDIA3 [5]): increased more than three degrees
Stern-Volmer constant (K SV) (PDIA3 [6]; 0.5∗10^−6 M PDIA3 in reduced conditions, pH 7.4, 25°C, flavonoid 0 to 10∗10^−6 M, mean and standard deviation): 46226 ± 1406 M⁻¹
Kd (PDIA3 [6]; Figure 8, no unit printed in the picture, read-out: Dissociation constant (Kd)): 25.6 µM
bimolecular quenching rate constant (K q) (PDIA3 [6]; K SV = K q τ0 with τ0 of the order of 10^−8 s, reduced PDIA3, pH 7.4, 25°C): 4.62e+12 M⁻¹ s⁻¹
Kd (PDIA3 [6]; K d = 1/K b, reduced PDIA3, pH 7.4, 25°C, read-out: dissociation constant (K d)): 25.6 µM
binding constant (K b) (PDIA3 [6]; equation of Bi et al., reiterative calculation of Sun et al., reduced PDIA3, pH 7.4, 25°C): 39000 M⁻¹
Inhibition of disulfide reductase (redox) activity (PDIA3 [7]): 18%
Inhibition of disulfide reductase (redox) activity (PDIA3 [7]; listed as quercetin): approximately 20%
Effect on disulfide reductase activity (in words) (PDIA3 [7]): some inhibitory effect
Effect on DNA binding activity of PDIA3 (PDIA3 [8]): None
